The source of these data is patent publication US20240368133A1, “Compounds for the Treatment of Pain, in Particular, Neuropathic Pain, and/or Other Diseases or Disorders that are Associated with AT2R and/or AT2R Mediated Signaling” (Confo Therapeutics N.V., priority 2021, published 2024).

The IC50 is the concentration at which inhibition is half-maximal.

The target in assay [1] is human AT2R fused to Cb23 (Homo sapiens, UniProt P50052). As to the kind of experiment: Radioligand binding assay, displacement of 125I-[Sar1, Ile8]-Angiotensin II, hAT2R Cb23. As to conditions: displacement of 125I-[Sar1, Ile8]-Angiotensin II, human AT2R fused to Cb23, HEK-293 cell membrane preparations; read-out: Binding affinity on hAT2R_Cb23 IC50. The procedure, abridged:
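Membranes from HEK-293 cells expressing human AT2R fused to Cb23 were incubated with 0.05 nM 125I-[Sar1, Ile8]-Angiotensin II in 100 μL buffer (50 mM Tris, 5 mM MgCl2, 1 mM EDTA, 0.1% BSA, pH 7.4) for one hour at 25° C. Ligands were tested as eight-point dose-response curves in duplicate, with C21 and Angiotensin II as references.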

The target in assay [2] is human AT1R (Homo sapiens (Human), UniProt P30556). The assay can be described thus: Counterscreen radioligand binding assay, displacement of 125I-[Sar1, Ile8]-Angiotensin II, hAT1R WT. As to conditions: for inhibition at 1 µM / inhibition at 10 µM: 125I-[Sar1, Ile8]-Ang II, semi-quantitative score; for inhibition at 1 µM: compound at 1 μM, read-out: % Displaced radioligand at 1 μM; for inhibition at 10 µM: compound at 10 μM, read-out: % Displaced radioligand at 10 μM; for IC50: HEK-293 cell membranes, read-out: Binding affinity On hAT1R IC50. In short, it runs like this:
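Membranes from HEK-293 cells expressing human AT1R were incubated for one hour at 25° C, pH 7.4, with 0.05 nM radiolabelled [Sar1, Ile8]-Ang II and test ligand. Bound radioactivity was collected on PEI-soaked filters, with 10 μM unlabelled [Sar1]-Ang II defining non-specific binding. Results are percent displacement at 1 μM and […], or IC50 from eight-point duplicate curves.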

A value given as a limit tells only on which side of the number the result lay.

human AT1R, sequence (P30556 whole entry): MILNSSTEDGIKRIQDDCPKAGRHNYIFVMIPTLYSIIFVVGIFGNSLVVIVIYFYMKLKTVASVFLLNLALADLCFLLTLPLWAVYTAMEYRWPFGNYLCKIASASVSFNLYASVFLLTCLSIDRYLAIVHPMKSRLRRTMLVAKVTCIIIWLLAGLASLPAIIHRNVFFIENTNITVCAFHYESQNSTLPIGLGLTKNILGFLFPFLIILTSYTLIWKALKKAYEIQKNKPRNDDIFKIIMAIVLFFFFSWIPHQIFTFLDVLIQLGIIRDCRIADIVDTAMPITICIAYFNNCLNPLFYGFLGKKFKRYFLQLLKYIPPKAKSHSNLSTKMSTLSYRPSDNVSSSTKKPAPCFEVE
human AT2R fused to Cb23, sequence (P50052 whole entry, looked up, the tested form may be a part): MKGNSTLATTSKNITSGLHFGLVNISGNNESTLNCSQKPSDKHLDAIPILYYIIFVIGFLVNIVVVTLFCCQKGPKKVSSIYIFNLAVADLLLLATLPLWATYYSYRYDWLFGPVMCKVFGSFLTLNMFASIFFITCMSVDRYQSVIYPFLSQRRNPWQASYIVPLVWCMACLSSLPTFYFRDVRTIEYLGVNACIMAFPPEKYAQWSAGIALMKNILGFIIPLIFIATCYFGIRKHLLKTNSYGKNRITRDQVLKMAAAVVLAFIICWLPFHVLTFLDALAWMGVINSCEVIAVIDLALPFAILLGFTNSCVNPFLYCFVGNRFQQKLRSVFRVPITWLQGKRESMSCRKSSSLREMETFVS

Turning to `O=c1[nH]c(CN2CCN(c3cc(C4CC4)ccc3-c3nn[nH]n3)CC2)nc2ccccc12` [Compound A-28, 2-[[4-[5-cyclopropyl-2-(2H-tetrazol-5-yl)phenyl]piperazin-1-yl]methyl]-3H-quinazolin-4-one], in assay [1], the IC50 is 3.56 µM. Besides, in assay [2], the inhibition at 1 µM is under 30% and the inhibition at 10 µM was under 30%.

For `CCc1ccc(C(=O)NS(=O)(=O)CC)c(N2CCN(Cc3nc4ccccc4s3)CC2)c1` [Compound A-33, 2-[4-(1,3-benzothiazol-2-ylmethyl)piperazin-1-yl]-4-ethyl-N-ethylsulfonyl-benzamide], the IC50 in assay [1] came to 3.07 µM. For the same compound, in assay [2], the inhibition at 1 µM is under 30% and the inhibition at 10 µM is under 30%.

`CCS(=O)(=O)NC(=O)c1ccc(C(C)C)cc1N1CCN(Cc2nc3ccccc3s2)CC1` [Compound A-34, 2-[4-(1,3-benzo-thiazol-2-ylmethyl)-piperazin-1-yl]-N-ethylsulfonyl-4-iso-propyl-benzamide]: the IC50 in assay [1] is 0.484 µM. In addition, in assay [2], the inhibition at 1 µM was under 30% and the inhibition at 10 µM was under 30%.

For the compound `CCS(=O)(=O)NC(=O)c1ccc(C2CC2)cc1N1CCN(Cc2nc3ccccc3s2)CC1` [Compound A-35, 2-[4-(1,3-benzothiazol-2-ylmethyl)piperazin-1-yl]-4-cyclopropyl-N-ethylsulfonyl-benzamide], in assay [1], the IC50 was found to be 0.602 µM. For the same compound, in assay [2], the inhibition at 1 µM was under 30%, the inhibition at 10 µM was under 30% and the IC50 amounted to 31.4 µM.

As to `CCS(=O)(=O)NC(=O)c1ccc(CC(C)C)cc1N1CCN(Cc2nc3ccccc3s2)CC1` [Compound A-36, 2-[4-(1,3-benzo-thiazol-2-ylmethyl)-piperazin-1-yl]-N-ethylsulfonyl-4-isobutyl-benzamide], the IC50 in assay [1] stood at 1.42 µM. In assay [2], the inhibition at 1 µM was under 30% and the inhibition at 10 µM was under 30%.

As for `CCS(=O)(=O)NC(=O)c1ccc(OC)cc1N1CCN(Cc2nc3ccccc3s2)CC1` [Compound A-37, 2-[4-(1,3-benzothiazol-2-ylmethyl)piperazin-1-yl]-N-ethylsulfonyl-4-methoxy-benzamide], in assay [1], the IC50 amounted to 6.58 µM. In assay [2], the inhibition at 1 µM is under 30% and the inhibition at 10 µM was under 30%.

In the case of `CCOc1ccc(C(=O)NS(=O)(=O)CC)c(N2CCN(Cc3nc4ccccc4s3)CC2)c1` [Compound A-38, 2-[4-(1,3-benzothiazol-2-ylmethyl)piperazin-1-yl]-4-ethoxy-N-ethylsulfonyl-benzamide], the IC50 in assay [1] turned out to be 2.4 µM. In assay [2], the inhibition at 1 µM is under 30%, the inhibition at 10 µM was in the range of 30 to 50% and the IC50 was 13.6 µM.

On to `CCS(=O)(=O)NC(=O)c1ccc(OC(C)C)cc1CN1CCN(c2nc3ccccc3s2)CC1` [Compound A-39, 2-[[4-(1,3-benzothiazol-2-yl)piperazin-1-yl]methyl]-N-ethylsulfonyl-4-isopropoxy-benzamide], for which the IC50 in assay [1] was found to be 2.81 µM. For the same compound, in assay [2], the inhibition at 1 µM is under 30% and the inhibition at 10 µM was under 30%.

For the compound `CCS(=O)(=O)NC(=O)c1ccc(OC(C)C)cc1N1CCN(Cc2nc3ccccc3s2)CC1` [Compound A-40, 2-[4-(1,3-benzothiazol-2-ylmethyl)piperazin-1-yl]-N-ethylsulfonyl-4-isopropoxy-benzamide], the IC50 in assay [1] is 5.87 µM. In assay [2], the inhibition at 1 µM is under 30%, the inhibition at 10 µM is under 30% and the IC50 is 36.6 µM.

As for `CCS(=O)(=O)NC(=O)c1ccc(OC2CC2)cc1N1CCN(Cc2nc3ccccc3s2)CC1` [Compound A-41, 2-[4-(1,3-benzothiazol-2-ylmethyl)piperazin-1-yl]-4-(cyclopropoxy)-N-ethylsulfonyl-benzamide], the IC50 in assay [1] came out at 2.54 µM. Besides, in assay [2], the inhibition at 1 µM was under 30%, the inhibition at 10 µM was in the range of 30 to 50% and the IC50 was 16.5 µM.

As to `CCCOc1ccc(C(=O)NS(=O)(=O)CC)c(N2CCN(Cc3nc4ccccc4s3)CC2)c1` [Compound A-42, 2-[4-(1,3-benzothiazol-2-ylmethyl)piperazin-1-yl]-N-ethylsulfonyl-4-propoxy-benzamide], the IC50 in assay [1] is 17.7 µM. In assay [2], the inhibition at 1 µM was under 30%, the inhibition at 10 µM lay in the range of 30 to 50% and the IC50 amounted to 26.3 µM.

In the case of `CCS(=O)(=O)NC(=O)c1ccc(OCC(C)C)cc1N1CCN(Cc2nc3ccccc3s2)CC1` [Compound A-43, 2-[4-(1,3-benzothiazol-2-ylmethyl)piperazin-1-yl]-N-ethylsulfonyl-4-isobutoxy-benzamide], the IC50 in assay [1] was 4.38 µM. In assay [2], the inhibition at 1 µM was under 30% and the inhibition at 10 µM is 30 to 50%.

On to `CCNc1ccc(C(=O)NS(=O)(=O)CC)c(N2CCN(Cc3nc4ccccc4s3)CC2)c1` [Compound A-44, 2-[4-(1,3-benzo-thiazol-2-ylmethyl)-piperazin-1-yl]-4-(ethylamino)-N-ethylsulfonyl-benz-amide], for which the half-maximal inhibitory concentration (IC50) in assay [1] was 7.18 µM. Also, in assay [2], the inhibition at 1 µM was under 30%, the inhibition at 10 µM is under 30% and the IC50 worked out at 34.9 µM.

As for `CCc1ccc(-c2nn[nH]n2)c(N2CCN(Cc3nc4ccccc4s3)CC2)c1` [Compound A-45, 2-[[4-[5-ethyl-2-(2H-tetrazol-5-yl)-phenyl]piperazin-1-yl]methyl]-1,3-benzothiazole], the IC50 in assay [1] came to 2.54 µM. In assay [2], the inhibition at 1 µM is under 30%, the inhibition at 10 µM is under 30% and the IC50 is 30 µM.

In the case of `CC(C)c1ccc(-c2nn[nH]n2)c(N2CCN(Cc3nc4ccccc4s3)CC2)c1` [Compound A-46], the IC50 in assay [1] turned out to be 1.79 µM. Moreover, in assay [2], the inhibition at 1 µM is under 30% and the inhibition at 10 µM is under 30%.

As for `c1ccc2sc(CN3CCN(c4cc(C5CC5)ccc4-c4nn[nH]n4)CC3)nc2c1` [Compound A-47, 2-[[4-[5-cycloprop-yl-2-(2H-tetrazol-5-yl)phenyl]piperazin-1-yl]methyl]-1,3-benzothiazole], the IC50 in assay [1] was determined as 1.07 µM. In assay [2], the inhibition at 1 µM was under 30% and the inhibition at 10 µM was under 30%.

In the case of `CC(C)Cc1ccc(-c2nn[nH]n2)c(N2CCN(c3nc4ccccc4s3)CC2)c1` [Compound A-49, 2-[4-[5-isobutyl-2-(2H-tetrazol-5-yl)-phenyl]piperazin-1-yl]-1,3-benzo-thiazole], the IC50 in assay [1] was determined as 2.34 µM. In assay [2], the inhibition at 1 µM was under 30%, the inhibition at 10 µM is 30 to 50% and the IC50 was found to be 20.3 µM.

For the compound `CC(C)Oc1ccc(-c2nn[nH]n2)c(CN2CCN(c3nc4ccccc4s3)CC2)c1` [Compound A-50, 2-[4-[[5-isoprop-oxy-2-(2H-tetrazol-5-yl)phenyl]meth-yl]piperazin-1-yl]-1,3-benzothiazole], the IC50 in assay [1] came out at 10.5 µM. Besides, in assay [2], the inhibition at 1 µM is under 30% and the IC50 is 28.8 µM.

With `c1ccc2sc(CN3CCN(c4cc(OC5CC5)ccc4-c4nn[nH]n4)CC3)nc2c1` [Compound A-52, 2-[[4-[5-(cyclopropoxy)-2-(2H-tetrazol-5-yl)phenyl]piperazin-1-yl]methyl]-1,3-benzothiazole], the IC50 in assay [1] was 4.42 µM. In assay [2], the inhibition at 1 µM is under 30% and the inhibition at 10 µM is under 30%.

`CC(C)COc1ccc(-c2nn[nH]n2)c(N2CCN(Cc3nc4ccccc4s3)CC2)c1` [Compound A-53, 2-[[4-[5-isobutoxy-2-(2H-tetrazol-5-yl)phenyl]piperazin-1-yl]methyl]-1,3-benzothiazole]: in assay [1], the IC50 turned out to be 7.6 µM. Besides, in assay [2], the inhibition at 1 µM is under 30%, the inhibition at 10 µM was under 30% and the IC50 was found to be 45.6 µM.

For `c1ccc2sc(CN3CCN(c4cc(OCC5CC5)ccc4-c4nn[nH]n4)CC3)nc2c1` [Compound A-54, 2-[[4-[5-(cyclo-propylmethoxy)-2-(2H-tetrazol-5-yl)-phenyl]piperazin-1-yl]methyl]-1,3-benzothiazole], the IC50 in assay [1] turned out to be 2.07 µM. Also, in assay [2], the inhibition at 1 µM is under 30%, the inhibition at 10 µM was under 30% and the IC50 is 31 µM.

On to `FC(F)COc1ccc(-c2nn[nH]n2)c(N2CCN(Cc3nc4ccccc4s3)CC2)c1` [Compound A-55, 2-[[4-[5-(2,2-difluoroethoxy)-2-(2H-tetrazol-5-yl)-phenyl]piperazin-1-yl]methyl]-1,3-benzothiazole], for which, in assay [1], the IC50 came to 2.27 µM. Also, in assay [2], the inhibition at 1 µM is under 30%, the inhibition at 10 µM was under 30% and the IC50 is 39.7 µM.

For `c1ccc2sc(CN3CCN(c4cc(OC5CCCC5)ccc4-c4nn[nH]n4)CC3)nc2c1` [Compound A-57, 2-[[4-[5-(cyclo-pentoxy)-2-(2H-tetrazol-5-yl)-phenyl]piperazin-1-yl]methyl]-1,3-benzothiazole], the IC50 in assay [1] came out at 1.9 µM. For the same compound, in assay [2], the inhibition at 1 µM was under 30%, the inhibition at 10 µM was under 30% and the IC50 stood at 34.5 µM.

As to `CCNc1ccc(-c2nn[nH]n2)c(N2CCN(Cc3nc4ccccc4s3)CC2)c1` [Compound A-59, 3-[4-(1,3-benzothi-azol-2-ylmethyl)-piperazin-1-yl]-N-ethyl-4-(2H-tetrazol-5-yl)aniline], the IC50 in assay [1] is 4.75 µM. In assay [2], the inhibition at 1 µM was under 30% and the inhibition at 10 µM was under 30%.
